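These data come from cells grown in 96-well plates and exposed to compound for 48 hours at five concentrations. Here, GI50 denotes the concentration required for 50% inhibition of growth.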 Active and inactive are the calls of the source. Rule as the data show it: active = GI50 up to about 1.1 µM and inactive = higher.
Experiments:
Assay in all cases: growth of human tumour cells (NCI), 48 h
MDA-MB-231 = tested on: MDA-MB-231
A498 = tested on: A498
SW-620 = tested on: SW-620
K562 = tested on: K562
TK-10 = tested on: TK-10
IGROV-1 = tested on: IGROV-1
MCF7 = tested on: MCF7
EKVX = tested on: EKVX
HOP-62 = tested on: HOP-62
SK-MEL-5 = tested on: SK-MEL-5
SNB-75 = tested on: SNB-75
PC-3 = tested on: PC-3
MDA-N = tested on: MDA-N
OVCAR-4 = tested on: OVCAR-4
OVCAR-8 = tested on: OVCAR-8
Malme-3M = tested on: Malme-3M
LOX IMVI = tested on: LOX IMVI
CCRF-CEM = tested on: CCRF-CEM
SK-OV-3 = tested on: SK-OV-3
BT-549 = tested on: BT-549

| SMILES | GI50 (MDA-MB-231) | GI50 (A498) | GI50 (SW-620) | GI50 (K562) | GI50 (TK-10) | GI50 (IGROV-1) | GI50 (MCF7) | GI50 (EKVX) | GI50 (HOP-62) | GI50 (SK-MEL-5) | GI50 (SNB-75) | GI50 (PC-3) | GI50 (MDA-N) | GI50 (OVCAR-4) | GI50 (OVCAR-8) | GI50 (Malme-3M) | GI50 (LOX IMVI) | GI50 (CCRF-CEM) | GI50 (SK-OV-3) | GI50 (BT-549) |
| --- | --- | --- | --- | --- | --- | --- | --- | --- | --- | --- | --- | --- | --- | --- | --- | --- | --- | --- | --- | --- |
| CCOC(=O)C(NC(=O)c1ccccc1)(Nc1ccc(S(=O)(=O)Nc2cc(C)nc(C)n2)cc1)C(F)(F)F (stereo unspecified) | > 100 µM (inactive) | 14.7 µM (inactive) | 56.1 µM (inactive) | > 100 µM (inactive) | > 100 µM (inactive) | > 100 µM (inactive) | > 100 µM (inactive) | > 100 µM (inactive) | > 100 µM (inactive) | > 100 µM (inactive) | > 100 µM (inactive) | > 100 µM (inactive) | > 100 µM (inactive) | > 100 µM (inactive) | > 100 µM (inactive) | > 100 µM (inactive) | > 100 µM (inactive) | > 100 µM (inactive) |  |  |
| OC1CCCC1C(O)(C(F)(F)F)C(F)(F)F (stereo unspecified) | > 100 µM (inactive) | > 100 µM (inactive) | > 100 µM (inactive) | > 100 µM (inactive) | > 100 µM (inactive) | > 100 µM (inactive) | > 100 µM (inactive) | > 100 µM (inactive) | > 100 µM (inactive) | > 100 µM (inactive) | > 100 µM (inactive) | > 100 µM (inactive) | > 100 µM (inactive) | > 100 µM (inactive) | > 100 µM (inactive) | > 100 µM (inactive) | > 100 µM (inactive) | > 100 µM (inactive) | > 100 µM (inactive) |  |
| CCOC(=O)CCC(C(=O)OCC)n1nnc2ccc(Nc3c(C)[n+]([O-])c4cc(F)c(OCC)cc4[n+]3[O-])cc21 (stereo unspecified) |  | > 100 µM (inactive) | > 100 µM (inactive) | 41.4 µM (inactive) | > 100 µM (inactive) | 48.1 µM (inactive) | 22.5 µM (inactive) | 44.7 µM (inactive) | > 100 µM (inactive) | 50.8 µM (inactive) | 79.4 µM (inactive) | > 100 µM (inactive) | 46.3 µM (inactive) | 36.4 µM (inactive) | 94.4 µM (inactive) | 35.6 µM (inactive) | 32.7 µM (inactive) | 40 µM (inactive) | > 100 µM (inactive) | 96.2 µM (inactive) |
| CCOC(=O)C1CC(O)C(=O)N1C (stereo unspecified) | > 100 µM (inactive) |  |  |  | > 100 µM (inactive) | > 100 µM (inactive) | > 100 µM (inactive) | > 100 µM (inactive) | > 100 µM (inactive) | > 100 µM (inactive) |  | > 100 µM (inactive) | > 100 µM (inactive) | > 100 µM (inactive) |  |  | > 100 µM (inactive) | > 100 µM (inactive) | > 100 µM (inactive) | > 100 µM (inactive) |
| COc1ccc(C2=NNC(c3cc4cc(Br)ccc4nc3Cl)C2)cc1 (stereo unspecified) |  | > 25 µM (inactive) | 10.9 µM (inactive) | 6.21 µM (inactive) |  | 9.42 µM (inactive) | 6.67 µM (inactive) | 19.4 µM (inactive) |  |  | 0.0631 µM (active) | 11.9 µM (inactive) | 6.31 µM (inactive) | 15.3 µM (inactive) |  |  |  | 0.13 µM (active) |  | 14.5 µM (inactive) |
| CC(=O)CCC[C@H](C)[C@@H](O)[C@@H]1O[C@H]([C@@]2(C)CCC(=O)O2)C[C@H]1C(=O)O | > 100 µM (inactive) |  | > 100 µM (inactive) | > 100 µM (inactive) | > 100 µM (inactive) | > 100 µM (inactive) | > 100 µM (inactive) | > 100 µM (inactive) | > 100 µM (inactive) | > 100 µM (inactive) | > 100 µM (inactive) | > 100 µM (inactive) | > 100 µM (inactive) | > 100 µM (inactive) | > 100 µM (inactive) |  | > 100 µM (inactive) | > 100 µM (inactive) | > 100 µM (inactive) | 35.6 µM (inactive) |
| Cc1ccc(C2=Nc3c(N)nc(N)nc3NC(c3ccccc3)C2)cc1 (stereo unspecified) | 11.8 µM (inactive) |  | 4.02 µM (inactive) | 3.51 µM (inactive) | 16.9 µM (inactive) | 5.36 µM (inactive) | 8.77 µM (inactive) | 12.4 µM (inactive) | 9.55 µM (inactive) |  | 11.2 µM (inactive) | 10.4 µM (inactive) | 2.12 µM (inactive) | 14.2 µM (inactive) | 13.1 µM (inactive) | 9.66 µM (inactive) | 10.1 µM (inactive) | 7.83 µM (inactive) | 12.5 µM (inactive) | 7.23 µM (inactive) |
| C[n+]1c2ccccc2c(C(=O)Nc2ccc(S(=O)(=O)N=C(N)N)cc2)c2ccccc21 | 23.2 µM (inactive) | > 100 µM (inactive) | > 100 µM (inactive) | > 100 µM (inactive) | > 100 µM (inactive) | 35.6 µM (inactive) | > 100 µM (inactive) | > 100 µM (inactive) | > 100 µM (inactive) | > 100 µM (inactive) | > 100 µM (inactive) | > 100 µM (inactive) | > 100 µM (inactive) | > 100 µM (inactive) | > 100 µM (inactive) | > 100 µM (inactive) | 75.3 µM (inactive) |  | > 100 µM (inactive) |  |

From ChEMBL document CHEMBL1201862, “PubChem BioAssay data set” (2004)
